Bridge positions count the residues as written; N and C are the ends. Peptide text beside a SMILES is read from it.
Legend:
[1] = tested on: mouse lung fibrosis model induced by bleomycin (BLM); test: Hydroxyproline (HYP) content / collagen deposition in lung, BLM mouse fibrosis model; type: in vivo; settings: 3 mg/kg intratracheal twice weekly x4 from Day 8, Day 21, BLM model group = 100.00
Method: This Example was to evaluate the inhibitory effect of polypeptides on collagen deposition in fibrotic tissues. In this example, 6- to 8-week-old male C57/6J mice weighing 18-20 g were used as subjects for the study. The experimental animals were randomized into groups, eight animals in each group. On the day of modeling (Day 1), a 0.7 USP/kg dose of bleomycin solution was administered via the tracheal route to induce the model. Treatment dosing started on Day 8. Each peptide-treated group received the peptide drug intratracheally at a dosage of 3 mg/kg, administered twice weekly for a total of four doses. The BLM model group received an equal volume of solvent (saline) as a control. The administration procedure followed that described in Example 4. Day 21 was set as the experimental endpoint for assessing the degree of fibrosis in the model.
On Day21, the animals were dissected to collect lung tissues, and after grinding the lung tissues in liquid nitrogen, hydroxyproline (HYP) was extracted from the tissue using acid hydrolysis. HYP is a unique amino acid found in collagen, and the determination of HYP content is an important indicator reflecting the metabolism of collagen tissue and the degree of fibrosis. 1 mL of 6N HCl was added per 100 mg of tissue and thoroughly mixed, followed by hydrolysis at 121° C. for 6 hours. The hydrolysate was centrifuged, and the resulting supernatant, along with a gradient of HYP standard solutions (Sigma, Catalog No. V900395-25G) at different concentrations, was used for HYP content determination. To each well of a 96-well plate, 10 μL of the hydrolysate supernatant was added and dried in an oven at 65° C. 100 μL per well of 1.4% chloramine T oxidizing solution (Sigma, Catalog No. 23270-50G) was added, and incubated at room temperature for 15 minutes. 100 μL per well of Ehrlich's color development solution (Solarbio, Catalog No. G1290) was added and incubated at 65° C. for 30 minutes. The absorbance of each sample well was measured at 560 nm (OD560) using a multifunctional microplate reader (TECAN, model Infinite 200 Pro). The total HYP content in the lung tissue from each experimental group was calculated to determine the reduction percentage of HYP content in the peptide-treated group relative to the model group, and the inhibitory effect of the peptide molecule on collagen deposition at the fibrotic site was assessed.

[2] = tested on: human liver cancer HepG2/C3A cells; test: Transwell tumor cell migration, co-culture with PMA-differentiated THP-1 cells; type: cell-based; settings: 100 μM polypeptide 48 h, co-culture 24 h; negative control group = 100.00
Method: (§1) This Example was to assess the effects of polypeptides on the migration abilities of different tumor cells. The experiment was performed using transwell nested chambers (membrane pore size of 8 μm), where THP-1 cells were inoculated in the lower chamber and treated with 300 nM PMA (Sigma, Catalog No.P1585) for differentiation and chamber-wall adherence, and then treated with 100 μM polypeptide (in the negative control, an equal volume of solvent was added) for 48 hours. The upper chamber was inoculated with tumor cells, human lung adenocarcinoma A549 cells (American Typical Culture Collection, ATCC, CCL-18), and co-cultured for 24 hours; or inoculated with human liver cancer HepG2/C3A cells (ATCC, CRL-10741), and co-cultured for 24 h; or inoculated with human breast cancer MCF7 cells (ATCC, HTB-22), and co-cultured for 48 h. After that, the upper chamber was taken out, fixed with 70% ethanol for 10 min and washed, then stained with Giemsa staining solution (Beyotime, Catalog No.C0131) for 45 min. After washing with double distilled water 2-3 times, unmigrated cells were wiped off the upper layer with a cotton swab. After the chamber was dried, it was observed under a microscope, and five different fields of view under a 100× magnification were randomly selected for counting and statistics. The polypeptides had significant inhibitory effects on the migratory abilities of human lung adenocarcinoma cells, human liver cancer cells, and human breast cancer cells.

[3] = tested on: human lung adenocarcinoma A549 cells; test: as above; type: cell-based; settings: 100 μM polypeptide 48 h, co-culture 24 h; negative control group = 100.00
Method: as §1

[4] = tested on: human breast cancer MCF7 cells; test: as above; type: cell-based; settings: 100 μM polypeptide 48 h, co-culture 48 h; negative control group = 100.00
Method: as §1

[5] = tested on: rat fibrotic disease model (bleomycin); test: Lung index and fibrotic pathology (Masson's trichrome) in bleomycin rat fibrosis model; type: in vivo; settings: for Lung index Mean(‰): 2 mg/kg intratracheal twice weekly x4 from Day 1, Day 15, BLM model 8.63, negative control 4.62; for Fibrosis score Mean: 2 mg/kg intratracheal twice weekly x4 from Day 1, Day 15, Masson's trichrome, BLM model 3.34, negative control 0.96
Method: This Example was to assess the inhibitory effect of polypeptide administration on the expression levels of pro-fibrotic factors at pathological fibrotic sites. 6- to 8-week-old male SD rats weighing 200 to 220 g were used as subjects for the study. The experimental animals were randomized into groups, 6 animals in each group. On the day of modeling (Day 1), a single dose of 1.8 USP/kg of bleomycin solution was administered via the tracheal route to the BLM model group and each peptide-treated group to induce the model. The negative control group was given an equal volume of saline. Starting on Day 1, each peptide-treated group received intratracheal administration of the peptide at a dosage of 2 mg/kg, with a dosing frequency of twice a week, for a total of four administrations. The BLM model group and the negative control group received an equal volume of solvent (saline) as a control, with the volume being 100 μL. The procedure followed that described in Example 4.
On Day 15, the lung tissues were dissected, washed with saline to remove blood stains, dried with gauze, and weighed. The lung index was calculated (lung index=(wet lung weight/body weight)×1000. This index reflects the general condition of the lung tissue, including edema, inflammation, and fibrosis). Histopathological analysis was performed on the dissected lung tissues. The lung tissues were perfused with 5 mL of paraformaldehyde via the trachea and placed in 40 mL of paraformaldehyde. A small amount of gauze was added to ensure the lung tissues were completely immersed in the fixative solution. The tissues were fixed for more than 24 hours. One lobe of the left lung and four lobes of the right lung were trimmed to the maximum coronal plane, and the left and right lungs were individually placed in two embedding cassettes, and then paraffin-embedded to make 3 μm sections. Masson's trichrome staining was performed as described in Example 7. After digital scanning, for each lung lobe, ≤10 visual fields were captured under a 10× magnification. The severity score of fibrosis was assessed to evaluate the inhibitory effects of the polypeptides on fibrotic deposition at pathological fibrotic sites.

## C[C@@H]1NC(=O)[C@H](CC(=O)O)NC(=O)[C@H](CCC(N)=O)NC(=O)[C@H]([C@@H](C)O)NC(=O)[C@H](CC(N)=O)NC(=O)[C@H](CC(=O)O)NC(=O)[C@H](CCC(=O)O)NC1=O [SEQ ID NO: 40, cyclo[Thr-Gln-Asp-Ala-Glu-Asp-Asn]] (cyclo(AEDNTQD))
[1]
  HYP content in lung tissue relative to model group, Mean (%): 77.88%
[2]
  HEPG2/C3A migration Mean (%): 67.27%
[3]
  A549 migration Mean (%): 67.97%
[4]
  MCF7 migration Mean (%): 51.27%

## CC(=O)N[C@H](C(=O)N[C@H]1CSSC[C@@H](C(=O)O)NC(=O)[C@H](CC(N)=O)NC(=O)[C@H](CC(=O)O)NC(=O)[C@H](CCC(=O)O)NC(=O)[C@H](C)NC(=O)[C@H](CC(=O)O)NC1=O)[C@@H](C)O [SEQ ID NO: 43, Ac-Thr-cyclo[Cys-Asp-Ala-Glu-Asp-Asn-Cys]] (Ac-TCDAEDNC-OH; disulfide 2-8)
[1]
  HYP content in lung tissue relative to model group, Mean (%): 72.18%
[5]
  Lung index Mean(‰): 7.11 ‰
  Fibrosis score Mean: 2.72
[2]
  HEPG2/C3A migration Mean (%): 71.02%
[3]
  A549 migration Mean (%): 83.37%
[4]
  MCF7 migration Mean (%): 73.84%

## CC(=O)N[C@H](C(=O)N[C@H]1CSSC[C@@H](C(N)=O)NC(=O)[C@H](CC(N)=O)NC(=O)[C@H](CC(=O)O)NC(=O)[C@H](CCC(=O)O)NC(=O)[C@H](C)NC(=O)[C@H](CC(=O)O)NC1=O)[C@@H](C)O [SEQ ID NO: 44, Ac-Thr-cyclo[Cys-Asp-Ala-Glu-Asp-Asn-Cys]-NH2] (Ac-TCDAEDNC-NH2; disulfide 2-8)
[1]
  HYP content in lung tissue relative to model group, Mean (%): 78.25%
[2]
  HEPG2/C3A migration Mean (%): 70.63%
[3]
  A549 migration Mean (%): 73.63%
[4]
  MCF7 migration Mean (%): 68.24%

## C[C@@H]1NC(=O)[C@H]([C@@H](C)O)NC(=O)[C@H](CC(N)=O)NC(=O)[C@H](CC(=O)O)NC(=O)[C@H](CCC(=O)O)NC(=O)[C@@H]2CCCN2C(=O)[C@H](CC(=O)O)NC(=O)[C@H](CCC(N)=O)NC(=O)[C@H]([C@@H](C)O)NC(=O)[C@H](CO)NC1=O [SEQ ID NO: 46, cyclo[Thr-Gln-Asp-Pro-Glu-Asp-Asn-Thr-Ala-Ser]] (cyclo(ASTQDPEDNT))
[1]
  HYP content in lung tissue relative to model group, Mean (%): 80.16%
[2]
  HEPG2/C3A migration Mean (%): 64.77%
[3]
  A549 migration Mean (%): 36.12%
[4]
  MCF7 migration Mean (%): 57.98%

## Ac-TQDAEDN-NH2 [SEQ ID NO: 06, Ac-Thr-Gln-Asp-Ala-Glu-Asp-Asn-NH2]
[1]
  HYP content in lung tissue relative to model group, Mean (%): 79.51%
[5]
  Lung index Mean(‰): 7.17 ‰
  Fibrosis score Mean: 2.66
[2]
  HEPG2/C3A migration Mean (%): 81.77%
[3]
  A549 migration Mean (%): 80.41%
[4]
  MCF7 migration Mean (%): 51.95%

## Ac-TQDAEDNTASH-NH2 [SEQ ID NO: 33, Ac-Thr-Gln-Asp-Ala-Glu-Asp-Asn-Thr-Ala-Ser-His-NH2]
[1]
  HYP content in lung tissue relative to model group, Mean (%): 82.23%
[5]
  Lung index Mean(‰): 7.37 ‰
  Fibrosis score Mean: 2.63
[2]
  HEPG2/C3A migration Mean (%): 72.07%
[3]
  A549 migration Mean (%): 62.89%
[4]
  MCF7 migration Mean (%): 47.13%

## Ac-TQDAEDPTA-NH2 [SEQ ID NO: 22, Ac-Thr-Gln-Asp-Ala-Glu-Asp-Pro-Thr-Ala-NH2]
[1]
  HYP content in lung tissue relative to model group, Mean (%): 72.66%
[5]
  Lung index Mean(‰): 7.39 ‰
  Fibrosis score Mean: 2.70
[2]
  HEPG2/C3A migration Mean (%): 76.69%
[3]
  A549 migration Mean (%): 59.45%
[4]
  MCF7 migration Mean (%): 48.64%

## Ac-TQDAEDPTAS-NH2 [SEQ ID NO: 25, Ac-Thr-Gln-Asp-Ala-Glu-Asp-Pro-Thr-Ala-Ser-NH2]
[1]
  HYP content in lung tissue relative to model group, Mean (%): 77.75%
[5]
  Lung index Mean(‰): 7.42 ‰
  Fibrosis score Mean: 2.62
[2]
  HEPG2/C3A migration Mean (%): 63.99%
[3]
  A549 migration Mean (%): 62.95%
[4]
  MCF7 migration Mean (%): 61.75%

## Ac-TQDPEDNTAS-NH2 [SEQ ID NO: 26, Ac-Thr-Gln-Asp-Pro-Glu-Asp-Asn-Thr-Ala-Ser-NH2]
[1]
  HYP content in lung tissue relative to model group, Mean (%): 72.07%
[5]
  Lung index Mean(‰): 7.17 ‰
  Fibrosis score Mean: 2.43
[2]
  HEPG2/C3A migration Mean (%): 55.16%
[3]
  A549 migration Mean (%): 73.25%
[4]
  MCF7 migration Mean (%): 63.23%

From patent US20250388623A1, “PEPTIDE INHIBITOR AND USE THEREOF” (CHENGDU BRILLIANT INSPIRATION BIOTHERAPEUTICS CO., LTD, priority 2022, published 2025)
